Drawing on EP4741383A1, “COMPOUND AND USE THEREOF AS ANTI-CANCER DRUG” (Tyligand Bioscience (Shanghai) Limited, priority 2023, dated 2025), this text covers IC50 for three compounds.

This assay relates to THP-1. Put plainly: CellTiter-Glo cell proliferation inhibition, THP-1. The assay is classed as cell-based. The note with it: Homo sapiens; THP-1 (leukemia cell line), 72 hours; read-out: Example IC50 (µM) THP-1. An excerpt:
This experiment used the CellTiter-Glo® Luminescent Cell Viability Assay kit from Promega to evaluate the inhibitory activity of the disclosed compounds on the proliferation of the following cell lines: 4T1 (mouse breast cancer cell line), A20 (mouse B-cell lymphoma cell line), A2780 (human ovarian cancer cell line), AsPC-1 (pancreatic cancer cell line), B16F10 (mouse melanoma cell line), BT549 (human breast cancer cell line), CT26 (mouse colon cancer cell line), EMT6 (mouse breast cancer cell line), HCT116 (colorectal cancer cell line), Jurket (acute leukemia cell line), KP-4 (pancreatic cancer cell line), LL/2 (mouse lung cancer cell line), MCF7 (breast cancer cell line), […] NCI-H358 (lung cancer cell line), NCI-H727 (gastric cancer cell line), NCI-1944 (lung cancer cell line), Pan 04.03 (pancreatic cancer cell line), SK-BR-3 (breast cancer cell line), THP-1 (leukemia cell line), TOV21G (ovarian cancer cell line), U87MG (glioblastoma cell line), and UM-UC-a (bladder cancer cell line).
All cell lines were purchased from Nanjing Kebai Biotechnology Co., Ltd. The following materials were also used in the experiment: RPMI-1640 media (HyClone, catalog number #SH30022.01), McCoy's 5A media (Thermo Fisher, catalog number #16600-082), MCDB 105 media (Sigma, catalog number #117-500), Medium 199 (Thermo Fisher, catalog number #11150-059), MEM media (Thermo Fisher, catalog number #11095-080), DMEM media (HyClone, catalog number #SH30027.01), fetal bovine serum (FBS) (ExCell, catalog number # M4530), Sodium Pyruvate (100Mm) (Thermo Fisher, catalog number #11360-070), and MEM NEAA (100X) (Thermo Fisher). […]
Cells were cultured according to the instructions provided by the cell supplier (Nanjing Kebai Biotechnology Co., Ltd.). […] Suspension or adherent cells were collected, and cell viability was determined using the trypan blue exclusion method, ensuring that cell viability was above 90%. […]

For `CC1(n2c(-c3ccc(NC(=O)C(=O)Nc4ccc(N5CCC6(CCOC6)CC5)cc4)cc3)cc3cc(F)c(-c4nnn[nH]4)cc32)CCC1` [Example 68], the IC50 was found to be 0.063 µM.

Take `O=C(Nc1ccc(-c2csc(CO)c2)cc1)C(=O)Nc1ccc(-c2cc3cc(F)c(-c4nnn[nH]4)cc3n2C2CCC2)cc1` [Example 1]: the IC50 was determined as 0.086 µM.

Take `O=C(Nc1ccc(-c2cc3cc(F)c(-c4nnn[nH]4)cc3n2C2CCC2)cc1)C(=O)Nc1ccc(N2CCC3(CCC(O)C3)CC2)cc1` (stereo not drawn) [Example 100]: the concentration for half-maximal inhibition (IC50) is 0.07 µM.
